# From ChEMBL document CHEMBL1201862, “PubChem BioAssay data set” (2004)
# Calls of active or inactive are those of the source.
# Assays:
# [1] = Luminescence Cell-Based Dose Retest to Confirm Inhibitors of Cancer Stem Cells. [Related pubchem assays (depositor defined):AID2717, AID2721]; type: functional; settings: Homo sapiens
# [2] = Trypanosoma cruzi growth suppression in host cells – NIH3T3 host cells, beta-gal luminescence, confirmation (AID 2044); type: functional, cell-based;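 note: intracellular parasites grown in NIH/3T3 mouse fibroblasts as host cells; luminescent beta-galactosidase reporter signal from transgenic T. cruzi replicating inside host cells; inhibitors lower the luminescence signal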
# [3] = NIH3T3 cell viability loss – ATP luminescence, mouse fibroblasts, counter-screen, dose response (AID 2010); type: functional, cell-based;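 note: cells exposed to compound for about 90 hours before reading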
# [4] = target: Paired box protein Pax-8 (Homo sapiens, UniProt Q06710); assay: PAX8 transcriptional activity inhibition in RMG-I – RMG-I cells, luciferase, cherry-pick, dose response (AID 687027); type: functional, cell-based;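 note: luciferase reporter driven by Pax8 target thyroperoxidase promoter measured by SteadyGlo luminescence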
# Sequence of Paired box protein Pax-8 (Q06710 whole entry): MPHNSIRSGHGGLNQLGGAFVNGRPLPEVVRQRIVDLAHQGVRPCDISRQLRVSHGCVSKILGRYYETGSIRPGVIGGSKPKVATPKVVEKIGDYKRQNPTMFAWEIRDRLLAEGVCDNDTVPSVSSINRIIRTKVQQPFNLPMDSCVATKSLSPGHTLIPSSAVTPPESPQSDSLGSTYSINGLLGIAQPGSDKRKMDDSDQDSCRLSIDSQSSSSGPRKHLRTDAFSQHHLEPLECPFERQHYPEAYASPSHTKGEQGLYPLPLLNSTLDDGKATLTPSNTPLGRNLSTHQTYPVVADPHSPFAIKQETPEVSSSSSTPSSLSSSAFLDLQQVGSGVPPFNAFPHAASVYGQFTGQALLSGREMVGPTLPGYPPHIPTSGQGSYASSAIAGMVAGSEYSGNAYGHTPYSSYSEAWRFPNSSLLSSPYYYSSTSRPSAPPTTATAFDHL
# [5] = viability of uninfected HEp-2 cells – cell-based, HTS, cytotoxicity control for RSV inhibitor project, dose response (AID 2410); type: functional; settings: human respiratory syncytial virus
# [6] = viability of PTEN-deleted HCT116 cells – cell-based, HCT116 PTEN knockout, dose response (AID 1047); type: functional;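 note: HCT116 colon tumor cells with PTEN knocked out; cells exposed to compound for 60 hours before readout; potency for loss of cell viability measured by luminescence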
# [7] = viability of HCT116 lacking mutant beta-catenin – cell-based, human colon tumor, dose response (AID 1045); type: functional;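 note: HCT116 colon tumor cells with beta catenin knocked out; cells exposed to compound for 60 hours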
# [8] = NIH-3T3 fibroblast cytotoxicity, dose response, cytotoxicity control, cell-based, fluorescence, Alamar Blue, secondary assay (AID 2327); type: functional;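 note: NIH-3T3 mouse fibroblasts cultured with fluconazole at 8 µg/mL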
# [9] = test system: Streptococcus sp. 'group A'; assay: Streptococcus pyogenes SK(-)GAS viability under kanamycin – luminescence, BacTiterGlo, confirmation, counter-screen for streptokinase expression inhibitor project, dose response (AID 1900); type: functional, organism-based
# [10] = target: T1, Streptokinase A (Streptococcus pyogenes serotype M1, UniProt P10520); assay: viability-normalized secreted streptokinase activity reduction – plasminogen activation absorbance, OD405, dose response (AID 1914); type: functional, Streptococcus pyogenes M1 GAS;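 note: secreted streptokinase activity via plasminogen activation per viability signal from cell pellet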
# T1 sequence (P10520 whole entry): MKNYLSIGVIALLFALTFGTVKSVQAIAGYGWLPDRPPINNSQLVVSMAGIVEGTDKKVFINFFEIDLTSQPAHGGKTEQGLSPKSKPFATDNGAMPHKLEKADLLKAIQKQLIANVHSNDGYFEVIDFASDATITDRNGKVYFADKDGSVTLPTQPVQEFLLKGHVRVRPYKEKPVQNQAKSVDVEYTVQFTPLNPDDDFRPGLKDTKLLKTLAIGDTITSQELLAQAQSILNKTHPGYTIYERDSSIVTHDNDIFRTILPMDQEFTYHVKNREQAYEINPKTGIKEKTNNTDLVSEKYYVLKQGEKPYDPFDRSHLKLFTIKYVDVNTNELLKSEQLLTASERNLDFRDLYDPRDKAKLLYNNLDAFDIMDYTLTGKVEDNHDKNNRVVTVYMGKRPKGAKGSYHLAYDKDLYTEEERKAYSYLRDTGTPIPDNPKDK
# [11] = fluconazole-exposed Candida albicans growth modulators – fluorescence, retest, confirmation (AID 2467); type: functional, cell-based
# [12] = test system: Streptococcus; assay: GAS UMAA2166 growth inhibition – luminescence, BacTiterGlo, counter-screen for streptokinase expression inhibitor project, dose response (AID 1915); type: functional, organism-based;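 note: potency for reduction of bacterial viability or growth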
# [13] = target: T2, Rac GTPase-activating protein 1 (Homo sapiens, UniProt Q9H0H5); assay: blockers of MgcRacGAP-driven Rac1 GTP hydrolysis – biochemical, ADP Hunter fluorescence, primary and confirmatory, confirmation (AID 624330); type: functional
# T2 sequence (Q9H0H5 whole entry): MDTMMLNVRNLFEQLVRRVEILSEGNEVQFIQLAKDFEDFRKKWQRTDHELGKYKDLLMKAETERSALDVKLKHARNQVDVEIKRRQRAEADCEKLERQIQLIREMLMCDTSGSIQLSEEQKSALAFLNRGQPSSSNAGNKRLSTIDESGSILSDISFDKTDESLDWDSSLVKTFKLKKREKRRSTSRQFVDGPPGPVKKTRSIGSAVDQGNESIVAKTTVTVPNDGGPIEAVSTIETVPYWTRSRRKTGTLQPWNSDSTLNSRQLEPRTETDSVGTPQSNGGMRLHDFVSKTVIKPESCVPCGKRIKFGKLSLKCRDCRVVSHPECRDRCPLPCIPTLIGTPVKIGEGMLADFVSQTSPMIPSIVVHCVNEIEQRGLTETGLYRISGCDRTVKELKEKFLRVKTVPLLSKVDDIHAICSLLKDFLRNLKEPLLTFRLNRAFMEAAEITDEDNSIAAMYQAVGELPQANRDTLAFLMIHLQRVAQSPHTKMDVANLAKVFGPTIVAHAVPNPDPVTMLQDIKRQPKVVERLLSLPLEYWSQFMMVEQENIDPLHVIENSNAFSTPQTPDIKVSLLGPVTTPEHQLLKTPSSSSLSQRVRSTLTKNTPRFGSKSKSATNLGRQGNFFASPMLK
# [14] = Luminescence Cell-Based Dose Confirmation HTS to Identify Activators of 5'UTR Stem-Loop Driven Alpha-Synuclein mRNA Translation in H4 Neuroglioblastoma Cells. [Related pubchem assays: 1829 (Project Summary), 1814 (Primary HTS)]; type: functional
# [15] = Luminescence Cell-Based Dose Response HTS to Identify Activators of Luciferase Translation or Activity in H4 […] Cells. [Related pubchem assays: 1829 (Project Summary), 1814 (Primary HTS)]; type: functional
# [16] = test system: H4; assay: Luminescence Cell-Based Dose Response HTS to Identify Activators of 5'UTR Stem-Loop Driven Prion Protein mRNA Translation in H4 Neuroglioblastoma Cells. [Related pubchem assays: 1829 (Project Summary), 1814 (Primary HTS)]; type: functional; settings: Homo sapiens
# [17] = target: T3, Ubiquitin-conjugating enzyme E2 N (Homo sapiens, UniProt P61088); type: functional;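 note: Dose-response confirmation in a TR-FRET assay detecting UBC13-driven polyubiquitin chain formation, inhibition measured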
# T3 sequence (P61088 whole entry): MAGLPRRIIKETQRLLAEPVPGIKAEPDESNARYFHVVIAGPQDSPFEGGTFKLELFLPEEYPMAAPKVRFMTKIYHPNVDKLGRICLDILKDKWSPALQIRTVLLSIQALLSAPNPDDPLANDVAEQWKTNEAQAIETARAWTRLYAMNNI
# [18] = target: Cytochrome P450 2C19 (Homo sapiens, UniProt P33261); assay: Cytochrome panel assay with activity outcomes. Panel member name: p450-cyp2c19 Compounds with AC50 equal or less than 10 uM are considered active; type: functional; settings: read-out: AC50
# Sequence of Cytochrome P450 2C19 (P33261 whole entry): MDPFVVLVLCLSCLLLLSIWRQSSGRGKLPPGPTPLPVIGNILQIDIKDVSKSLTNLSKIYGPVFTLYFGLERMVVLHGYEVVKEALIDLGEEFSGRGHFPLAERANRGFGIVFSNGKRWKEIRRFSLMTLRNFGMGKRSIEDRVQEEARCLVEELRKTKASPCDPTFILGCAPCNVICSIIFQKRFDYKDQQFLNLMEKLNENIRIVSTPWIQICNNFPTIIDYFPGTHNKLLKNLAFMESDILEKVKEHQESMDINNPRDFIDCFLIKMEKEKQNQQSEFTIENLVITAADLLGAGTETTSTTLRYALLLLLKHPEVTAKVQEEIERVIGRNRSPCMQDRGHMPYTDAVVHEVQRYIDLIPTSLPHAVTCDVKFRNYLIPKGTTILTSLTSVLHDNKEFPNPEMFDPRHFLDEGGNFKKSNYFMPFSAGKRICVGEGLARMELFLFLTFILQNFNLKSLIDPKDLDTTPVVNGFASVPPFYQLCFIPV
structure (smiles),measurement,setting,value
CCc1cc2cccc(C)c2nc1SCC(=O)c1ccc(NC(C)=O)cc1,AC50,[1],2.94 µM (active)
O=C1[C@@H]2Cc3c([nH]c4ccccc34)C(c3cccc(Br)c3)N2C(=O)CN1C1CCN(Cc2ccccc2)CC1 (stereo not given in full),EC50,[2],1.32 µM (active)
same,EC50,[3],9.95 µM (active)
same,AC50,[1],6.9 µM (active)
same,AC50,[4],12.1 µM (active)
CC(C)c1ccc(NC(=O)/C(C#N)=C/c2ccncc2)cc1,CC50,[5],14.5 µM (active)
CC1CN(c2nc(-c3ccc(Br)cc3)nnc2-c2ccccc2)CC(C)N1 (stereo not given),EC50,[6],11.3 µM (active)
same,EC50,[7],10 µM (active)
CCOC(=O)c1cnc(-n2cc(C)cn2)nc1Nc1ccccc1OCC,EC50,[8],44.2 µM (active)
same,EC50,[9],4.47 µM (active)
same,EC50,[10],> 150 µM (not active)
same,EC50,[11],> 38 µM (not active)
same,EC50,[12],6.46 µM (active)
CCOC(=O)c1c(NC(=O)CCS(=O)(=O)c2ccccc2)sc2c1CCN(C)C2,EC50,[9],> 150 µM (not active)
same,EC50,[10],> 150 µM (not active)
same,EC50,[12],> 150 µM (not active)
Cc1ccc(CN2CCN(CC3CC4C=CC3C4)CC2)cc1 (stereo not given),IC50,[13],113 µM (active)
CC(C)CCOc1ccc(-c2c(=O)n(OCc3ccc([N+](=O)[O-])cc3)c3ccccc3[n+]2[O-])cc1,EC50,[6],20.7 µM (active)
same,EC50,[7],28.3 µM (active)
N#Cc1nc(-c2cccc3ccccc23)oc1NCCN1CCCCC1,EC50,[14],12.4 µM (active)
same,EC50,[15],12 µM (active)
same,EC50,[16],> 120 µM (not active)
same,IC50,[17],> 20 µM (inactive)
C=CCc1cccc(/C=N/c2cc(Br)ccc2O)c1O,IC50,[13],14.7 µM (active)
CCOc1ccccc1NC(=O)C(NCCN(C)C)c1ccccc1 (stereo not given),IC50,[13],91.1 µM (active)
C[C@]12CCC(O)CC1CCC1C2CC[C@]2(C)C(c3cc(C(F)(F)F)[nH]n3)CCC12 (stereo not given in full),CC50,[5],8.08 µM (active)
same,EC50,[9],1.17 µM (active)
same,EC50,[12],3.87 µM (active)
same,AC50,[1],1.67 µM (active)
CC(=O)/C=C/c1ccc2ccccc2n1,EC50,[6],2.58 µM (active)
same,EC50,[7],2.42 µM (active)
same,AC50,[18],39.8 µM (inconclusive)
COc1cc(C(=O)N/N=C/c2ccc(OC(=O)c3ccccc3Cl)c(OC)c2)ccc1O,EC50,[9],6.17 µM (active)
same,EC50,[10],> 150 µM (not active)
same,EC50,[12],8.59 µM (active)
